Data on one molecule can be found in patent US7385039B2, “Methods and compositions for regulating imidazoline receptors” (priority 1998, dated 2008).

The assay has as its system I1R. The assay is described as follows: I1R model: [3H]arachidonic acid release from PC-12 cells. The format is cell-based. The procedure: Assays for measuring imidazoline receptor-mediated arachidonic acid release from PC12 cells is as described in Ernsberger et al., (1995, FASEB J. 9:A114).
I1R model: [^3H]Arachidonic acid (AA) release from PC-12 cells. Assays (Emsberger, P. (1998) J. Auton. Nerv. Syst. 72, 147-154 Ernsberger, P. (1998) J. Auton. Nerv. Syst. 72, 147-154) were done after a 30 min washout to attain a stable background. Cells were superfused with 0.01% BSA in Krebs buffer for seven 1-min fractions (baseline), then treated with 10 μM or 100 μM I-4-AA-RP alone, or together with efaroxan (10 μM), a prototypical I1-antagonist/I3-agonist. Controls included baseline release with vehicle alone (0-7 min) or vehicle containing efaroxan (5 min) before adding I-4-AA-RP. [^3H]products (>98% AA) collected in each 1-min fraction were expressed as fractional release defined as % total radioactivity incorporated into cells, corrected for [^3H]AA previously released (Ernsberger, P. (1998) J. Auton. Nerv. Syst. 72, 147-154).

`O=C(O)Cc1cn(C2OC(COP(=O)(O)O)C(O)C2O)cn1` [IAA-RP, 1-(β-D-ribofuranosyl)-imidazole-4-acetic acid 5′ phosphate]: the “increase of [3H]AA release” value (10 μM) is given as 68±29% and the “increase of [3H]AA release” value (100 μM) turned out to be 177±89%. Also, under “IAA-R 10 μM-1 mM”, the “stimulation of [3H]AA release (in words)” value is reported as “stimulated release of arachidonic acid”.
